Test [1] addresses Sodium-dependent serotonin transporter (Homo sapiens, UniProt P31645). The class given is cell-based, JAR.
Description: Inhibition concentration against [3H]5-HT uptake by human serotonin transporter in JAR cells
Test [2] addresses T1, Adrenergic receptor alpha-1 (Rattus norvegicus, UniProt P15823+P23944+P43140).
T1 sequence (P15823 whole entry): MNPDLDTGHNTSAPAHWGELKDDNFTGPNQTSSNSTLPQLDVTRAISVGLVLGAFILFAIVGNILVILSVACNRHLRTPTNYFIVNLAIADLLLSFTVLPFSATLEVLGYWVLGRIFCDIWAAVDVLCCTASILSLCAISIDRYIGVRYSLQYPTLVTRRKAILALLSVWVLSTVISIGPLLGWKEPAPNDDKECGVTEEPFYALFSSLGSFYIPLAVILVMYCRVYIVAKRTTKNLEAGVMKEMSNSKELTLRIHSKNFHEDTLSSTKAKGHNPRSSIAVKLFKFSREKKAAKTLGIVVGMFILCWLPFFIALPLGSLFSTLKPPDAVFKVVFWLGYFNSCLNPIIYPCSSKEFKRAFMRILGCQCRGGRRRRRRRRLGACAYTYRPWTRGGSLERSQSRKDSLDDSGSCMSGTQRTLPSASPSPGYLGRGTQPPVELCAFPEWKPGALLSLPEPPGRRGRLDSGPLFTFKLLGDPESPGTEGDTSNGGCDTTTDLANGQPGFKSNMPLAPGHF
T1 sequence (P23944 whole entry): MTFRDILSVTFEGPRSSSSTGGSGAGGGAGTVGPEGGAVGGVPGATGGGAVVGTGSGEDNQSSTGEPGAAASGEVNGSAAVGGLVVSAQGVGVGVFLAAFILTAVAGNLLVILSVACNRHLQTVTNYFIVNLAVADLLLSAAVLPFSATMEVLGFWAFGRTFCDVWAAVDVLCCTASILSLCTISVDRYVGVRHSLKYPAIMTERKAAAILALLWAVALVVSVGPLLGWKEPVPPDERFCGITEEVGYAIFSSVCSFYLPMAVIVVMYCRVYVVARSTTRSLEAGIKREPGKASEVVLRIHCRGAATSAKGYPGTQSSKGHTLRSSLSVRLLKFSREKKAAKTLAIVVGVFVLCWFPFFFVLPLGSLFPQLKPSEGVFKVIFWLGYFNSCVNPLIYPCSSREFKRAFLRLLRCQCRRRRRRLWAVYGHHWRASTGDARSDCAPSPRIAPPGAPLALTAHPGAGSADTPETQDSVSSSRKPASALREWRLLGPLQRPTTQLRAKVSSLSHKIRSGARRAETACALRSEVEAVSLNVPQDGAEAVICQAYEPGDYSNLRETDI
T1 sequence (P43140 whole entry): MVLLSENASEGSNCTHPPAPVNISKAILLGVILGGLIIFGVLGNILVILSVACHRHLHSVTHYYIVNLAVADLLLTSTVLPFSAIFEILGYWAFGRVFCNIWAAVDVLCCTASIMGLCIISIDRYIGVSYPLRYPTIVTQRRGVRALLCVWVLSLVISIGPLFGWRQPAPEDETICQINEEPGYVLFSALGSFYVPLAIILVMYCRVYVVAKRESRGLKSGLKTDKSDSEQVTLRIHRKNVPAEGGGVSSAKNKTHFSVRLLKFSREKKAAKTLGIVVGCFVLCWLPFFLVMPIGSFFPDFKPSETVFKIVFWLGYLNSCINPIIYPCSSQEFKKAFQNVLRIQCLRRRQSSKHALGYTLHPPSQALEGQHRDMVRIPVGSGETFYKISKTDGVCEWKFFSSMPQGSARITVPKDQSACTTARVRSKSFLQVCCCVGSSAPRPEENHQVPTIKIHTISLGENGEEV
Description: Binding affinity against rat cortical alpha-1 adrenergic receptor labeled with [3H]prazosin radioligand

In test [3] the target is Sodium-dependent serotonin transporter (Rattus norvegicus, UniProt P31652).
Chain of Sodium-dependent serotonin transporter (Rattus norvegicus, UniProt P31652) (P31652 whole entry): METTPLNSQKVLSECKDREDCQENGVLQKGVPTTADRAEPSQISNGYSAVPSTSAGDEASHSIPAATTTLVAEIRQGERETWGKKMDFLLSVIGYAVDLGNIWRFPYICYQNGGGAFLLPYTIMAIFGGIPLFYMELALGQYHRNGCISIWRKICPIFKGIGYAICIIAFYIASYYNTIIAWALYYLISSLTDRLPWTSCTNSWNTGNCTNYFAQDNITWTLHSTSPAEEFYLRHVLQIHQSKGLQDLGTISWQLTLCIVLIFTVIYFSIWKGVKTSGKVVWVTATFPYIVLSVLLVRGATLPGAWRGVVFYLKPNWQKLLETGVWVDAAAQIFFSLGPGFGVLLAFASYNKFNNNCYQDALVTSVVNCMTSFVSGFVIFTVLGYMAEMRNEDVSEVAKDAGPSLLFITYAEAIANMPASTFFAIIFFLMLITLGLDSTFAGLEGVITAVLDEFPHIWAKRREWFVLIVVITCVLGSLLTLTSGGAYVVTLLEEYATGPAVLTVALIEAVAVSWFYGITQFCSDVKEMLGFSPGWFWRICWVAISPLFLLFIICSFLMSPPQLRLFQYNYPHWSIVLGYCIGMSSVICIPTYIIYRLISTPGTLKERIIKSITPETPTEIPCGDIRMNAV
Description: Binding affinity against serotonin transporter in rat cortical tissues using radioligand [3H]paroxetine
Test [4] deals with Adrenergic receptor alpha-1 (Rattus norvegicus) (UniProt P15823+P23944+P43140). Nature of the test: Percent inhibition against rat cortical alpha-1 adrenergic receptor labeled with [3H]prazosin radioligand was determined. The class given is protein assay. Particulars: concentration not given here.

The structures appear in SMILES notation. pIC50, pKi: −log10 of the molar value.

Chain of Sodium-dependent serotonin transporter (Homo sapiens, UniProt P31645) (P31645 whole entry): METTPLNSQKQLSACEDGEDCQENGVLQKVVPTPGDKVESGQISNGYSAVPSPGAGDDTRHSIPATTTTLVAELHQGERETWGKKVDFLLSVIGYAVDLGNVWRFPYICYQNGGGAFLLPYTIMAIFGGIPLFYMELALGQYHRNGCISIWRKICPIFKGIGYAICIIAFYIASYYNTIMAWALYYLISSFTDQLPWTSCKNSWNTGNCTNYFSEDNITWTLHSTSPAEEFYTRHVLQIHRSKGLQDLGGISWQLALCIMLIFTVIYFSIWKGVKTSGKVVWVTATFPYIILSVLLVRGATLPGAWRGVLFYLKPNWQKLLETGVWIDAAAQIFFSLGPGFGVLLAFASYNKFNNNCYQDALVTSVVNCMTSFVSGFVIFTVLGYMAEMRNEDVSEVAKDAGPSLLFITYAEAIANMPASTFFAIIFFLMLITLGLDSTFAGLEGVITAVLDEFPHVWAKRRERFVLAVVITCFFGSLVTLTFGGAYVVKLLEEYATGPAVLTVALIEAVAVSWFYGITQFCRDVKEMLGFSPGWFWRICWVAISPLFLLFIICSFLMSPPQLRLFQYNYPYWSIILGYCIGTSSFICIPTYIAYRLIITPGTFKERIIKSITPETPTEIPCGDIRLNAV

For `Fc1cc2c(c(OCCNCCc3c[nH]c4ccc(F)cc34)c1)OCCC2`, in test [1], the pIC50 – broadly, the negative decadic logarithm of the IC50, by convention in mol/L – was 7.06. Besides, the Ki – broadly, the dissociation constant of the complex between target and ligand, obtained from inhibition or displacement – in test [2] turned out to be 11.9 nM.
For the compound `Fc1ccc2[nH]cc(CCCNCCOc3cccc4ncccc34)c2c1`, the pIC50 in test [1] was 7.14. Besides, in test [3], the pKi (as a rule, −log10 of the Ki, conventionally taken in molar units) is 8.96. The same compound showed a Ki in test [2] of 122 nM.
As for `COc1ccccc1OCCNCCCCc1c[nH]c2ccccc12`, in test [4], the inhibition (commonly the share of the control response that was lost under treatment) stood at 99%. In test [2], this compound registered a Ki of 100 nM.
For the compound `Fc1ccc2[nH]cc(CCCNCCOc3ccccc3)c2c1`, the pIC50 in test [1] was 5.42. The pKi in test [3] was 6.92. Besides, the Ki in test [2] came out at 3.4 nM.
In test [4], `Fc1cc2c(c(OCCNCCc3c[nH]c4ccc(F)cc34)c1)OCC2` yielded an inhibition of 85%. Further, the pIC50 in test [1] is 6.60. For the same compound, the Ki in test [2] stood at 100 nM.
`Fc1cc2c(c(OCCNCCc3c[nH]c4ccccc34)c1)OCCC2`: the pIC50 in test [1] was 7.37. Besides, the Ki in test [2] is recorded as 4.4 nM.
As to `COc1ccc(F)cc1OCCNCCc1c[nH]c2ccc(F)cc12`, in test [3], the pKi is 7.63. This compound showed a Ki in test [2] of 4.8 nM.
In turn, `Fc1ccc2[nH]cc(CCCNCCOc3cccc4[nH]ccc34)c2c1` had a pIC50 in test [1] of 7.61. In test [2], the Ki is 5.6 nM.
For `Fc1ccc2[nH]cc(CCCNCCOc3cccc4nccnc34)c2c1`, in test [1], the pIC50 was 7.70. Besides, the pKi in test [3] is 8.92. Moreover, the Ki in test [2] stood at 52 nM.
Consider `Fc1ccc2[nH]cc(CCCNCCOc3cccc4[nH]cnc34)c2c1`, for which the inhibition in test [4] was 93%. This compound showed a Ki in test [2] of 100 nM.
In test [1], `COc1ccc(F)cc1OCCNCCCc1c[nH]c2ccc(F)cc12` had a negative logarithm of the IC50 (pIC50) of 7.69. This compound also registered a Ki in test [2] of 2.5 nM.
Compound `c1ccc2c(CCCNCCOc3cccc4[nH]ccc34)c[nH]c2c1` showed an inhibition in test [4] of 89%. In test [1], this compound showed a pIC50 of 6.81. In test [2], the Ki turned out to be 100 nM.
As for `Fc1ccc2[nH]cc(CCCNCCOc3cccc4c3OCCO4)c2c1`, the pIC50 in test [1] is 8.20. In test [2], this compound registered a Ki of 9.6 nM.
Compound `Fc1ccc2[nH]cc(CCNCCOc3cccc4c3OCCO4)c2c1` yielded an inhibition in test [4] of 80%. Besides, the pIC50 in test [1] was 7.07. The same compound gave a pKi in test [3] of 7.87. The compound also gave a Ki in test [2] of 100 nM.
With `Fc1cc2c(c(OCCNCCCc3c[nH]c4ccc(F)cc34)c1)OCC2`, the negative logarithm of the IC50 (pIC50) in test [1] is 7.21. The compound further had a pKi in test [3] of 8.93. For the same compound, the Ki in test [2] is 9.2 nM.
For `c1ccc2c(OCCNCCCc3c[nH]c4ccccc34)cccc2c1`, in test [1], the pIC50 was 5.66. This compound showed a pKi in test [3] of 6.91. The same compound had a Ki in test [2] of 204 nM.
The compound `Fc1cc(OCCNCCCc2c[nH]c3ccc(F)cc23)c2occc2c1` had a pKi in test [3] of 8.66. In test [2], this compound gave a Ki of 34.3 nM.
For `c1cnc2c(OCCNCCCc3c[nH]c4ccccc34)cccc2c1`, in test [2], the Ki was 7.4 nM.
`c1ccc2c(CCCCNCCOc3cccc4[nH]ccc34)c[nH]c2c1`: the pIC50 in test [1] is 6.06.
In turn, `COc1ccccc1OCCNCCCc1c[nH]c2ccc(F)cc12` yielded an inhibition in test [4] of 95%. Moreover, in test [1], the pIC50 was 7.70.
Regarding `Fc1ccc2[nH]cc(CCCNCCOc3cccc4c3CCCC4)c2c1`, the negative-log IC50 (pIC50) in test [1] was 6.52.
In test [1], `COc1ccc(F)cc1OCCNCCc1c[nH]c2ccccc12` had a pIC50 of 6.60. This compound also showed a pKi in test [3] of 7.37. This compound gave a Ki in test [2] of 3.3 nM.
`Fc1ccc2[nH]cc(CCCNCCOc3cccc4c3OCC4)c2c1` had an inhibition in test [4] of 85%. For the same compound, in test [1], the pIC50 was 8.01. Also, in test [2], the Ki amounted to 100 nM.
As for `Fc1ccc2[nH]cc(CCCNCCOc3cc(Cl)cc4[nH]cnc34)c2c1`, in test [1], the pIC50 was 8.35. The same compound displayed an inhibition constant Ki in test [2] of 4.6 nM.
In test [4], `Fc1cc2c(c(OCCNCCCc3c[nH]c4ccc(F)cc34)c1)OCCC2` yielded an inhibition of 79%. This compound gave a pIC50 in test [1] of 8.15. For the same compound, the Ki in test [2] was 100 nM.
`Fc1cc(OCCNCCCc2c[nH]c3ccc(F)cc23)c2c(c1)OCCO2` showed a pIC50 in test [1] of 7.61. The same compound showed a negative logarithm of the Ki (pKi) in test [3] of 9.31. Also, the Ki in test [2] was determined as 13.3 nM.
Compound `Fc1ccc2[nH]cc(CCCNCCOc3cccc4ccoc34)c2c1` showed a pIC50 in test [1] of 7.55. In test [2], this compound had a Ki of 27.7 nM.

Values taken from ChEMBL document CHEMBL1148370, “Studies toward the discovery of the next generation of antidepressants. 3. Dual 5-HT1A and serotonin transporter affinity within a class of N-aryloxyethylindolylalkylamines” (J Med Chem, 2004).
